Results: patent US20040025201A1, “True breeding transgenics from plants heterozygous for transgene insertions” (New Zealand Institute for Crop & Food Research Lim, priority 1995, published 2004)

Experiments:
Assay type in all cases: in vivo
[1] = tested on: Brassica napus plants heterozygous for the chlorsulfuron-resistant mutation (wt×30b); assay: Experiment 5 part (b): back-crossed progeny ((wt×30b)×wt) of sprayed ovule parent
Description: (§1) The heterozygous plants were allowed to self pollinate and resulting seeds harvested at maturity. This next generation was screened for chlorsulfuron resistance as previously described (Conner et al. (1994). Briefly, this involved surface sterilizing the seeds (10-12 minutes in 1% sodium hypochlorite, plus a drop of Tween 20), followed by 2-3 rinses in sterile water, then sowing the seeds in vitro onto the surface of a medium consisting of half strength MS salts at pH 5.8 (Murashige and Skoog Physiologia Plantarum 15:473-497 (1962)) supplemented with 10 ug/liter chlorsulfuron and 6.5 g/liter agar. Seeds were then germinated at 24-26° C. under cool white fluorescent lights (80-100) umol/m2/sec; 16 h light: 8 h darkness daily).
(§2) Seeds generally germinated after 3-4 days and were scored for chlorsulfuron resistance 5-7 days after sowing. Resistant seedlings had long healthy roots (4-6 cm) that penetrated into the gelled medium, with healthy green cotyledons.
(§3) To further explore the underlying reasons accounting for the induced skewed segregation, additional crosses using the 30b mutant were performed. At specified times the plants were sprayed with chlorsulfuron and the progeny evaluated as described in Experiment 1 above.
Part (b). Plants heterozygous for the chlorsulfuron-resistant mutation (wt×30b) were either not sprayed, or sprayed with chlorsulfuron at varying times during development. The back crossed-progeny ((wt×30b)×wt), resulting from pollen from non-sprayed wildtype plants were screened for chlorsulfuron resistance as described in Experiment 1.

[2] = tested on: Brassica napus plants heterozygous for the chlorsulfuron-resistant mutation (wt×30b); assay: Experiment 5 part (a): self-pollinated seed of heterozygous plants sprayed at varying times
Description: as §1, §2, §3
Part (a). Plants heterozygous for the chlorsulfuron-resistant mutation (wt×30b) were either not sprayed, or sprayed with chlorsulfuron at varying times during development. The self-pollinated seed was harvested, and the germinated seedlings were screened for chlorsulfuron resistance.

[3] = tested on: Brassica napus plants heterozygous for the chlorsulfuron-resistant mutation (wt×30b); assay: Experiment 5 part (c): back-crossed progeny (wt×(wt×30b)) of sprayed pollen parent; conditions: pollen parent sprayed just prior to bolting
Description: as §1, §2, §3
Part (c). Plants heterozygous for the chlorsulfuron-resistant mutation (wt×30b) were either not sprayed, or sprayed with chlorsulfuron just prior to bolting. The pollen from these plants was back-crossed to non-sprayed wildtype plants, and the resulting progeny (wt×(wt×30b)) were screened for chlorsulfuron resistance as described in Experiment 1.

[4] = tested on: Transgenic potato plants (Solanum tuberosum cv. Iwa), line SCI1; assay: Experiment 4: segregation of GUS activity in selfed progeny of sprayed transgenic potato; conditions: sprayed once three weeks after planting, 20 g/ha
Excerpt: The Solanum tuberosum, subspecies tuberosum, plant line used: SCI1 (Conner et al., Journal of Cellular Biochemistry 13D: 333 (1989)). This line of potato is transformed with the T-DNA from pKIWI100 and expresses transgenes conferring kanamycin resistance, β-glucuronidase (GUS) activity, and chlorsulfuron resistance. The cultivated varieties of potato grown in the United States and Europe are predominantly tetraploid (i.e., four complete sets of chromosomes) (Plaisted, R. L., Potato, Chapter 34:483-494, In Hybridization of Crop Plants, supra; Allard, pg. 6, supra.
Plants of the original transgenic line were vegetatively propagated via tubers which were planted in a containment greenhouse. Soon after sprouting (three weeks after planting) the plants were sprayed once with either water of chlorsulfuron at the equivalent rate of 20 g/ha Plants were self pollinated at flowering and berries harvested 15 weeks after spraying. Seeds were extracted and germinated, and the progeny histochemically screened for GUS activity.

[5] = tested on: Brassica napus mutant (19c); assay: Experiment 2: segregation of chlorsulfuron resistance in selfed progeny of sprayed heterozygous plants
Description: as §1, §2
A further chlorsulfuron-resistant Brassica napus mutant (19c), of independent origin to mutant 30b (Conner et al., Proceedings of the 47th New Zealand Plant Protection Conference, 173-177 (1994)) was subjected to identical experiments described above for mutant 30b.

[6] = tested on: Transgenic forage brassica plants (Brassica napus cv. Giant), line G/HR10; assay: Experiment 3: segregation of GUS activity in selfed progeny of sprayed transgenic forage brassica; conditions: sprayed once prior to bolting, 20 g/ha
Excerpt: Plant line used: G/HR10 (Christey and Sinclair, Plant Science: 87 161-169 (1992)). This line contains a single insertion of the T-DNA from pKIWI110 and expresses transgenes conferring kanamycin resistance, β-glucuronidase (GUS) activity, and chlorsulfuron resistance.
Plants of the original transgenic line were cloned in vitro, then transferred to a containment greenhouse. […] The plants were allowed to self-pollinate and the seeds were harvested five months after spraying. The progeny germinated and histochemically screened for GUS activity.

[7] = tested on: Brassica napus plants heterozygous for the chlorsulfuron-resistant mutation (wt×30b); assay: Experiment 5 part (d): back-crossed progeny ((wt×30b)×30b) of sprayed female parent; conditions: heterozygous female parent sprayed just prior to bolting
Description: as §1, §2, §3
Part (d). Plants heterozygous for the chlorsulfuron-resistant mutation (wt×30b) were either not sprayed, or sprayed with chlorsulfuron just prior to bolting. […]

[8] = tested on: Brassica napus (30b) mutant; assay: Experiment 1: segregation of chlorsulfuron resistance in selfed progeny of sprayed heterozygous plants
Excerpt: A homozygous line of a Brassica napus (30b) mutant, with a single gene conferring sulfonylurea resistance (Conner et al., Proceedings of the 47th New Zealand Plant Protection Conference, 173-177 (1994)), was used in this study. Brassica napus are self-fertile, with about 80% of the seed normally arising from self-pollination, although a greater degree of cross-pollination may occur when insect pollinators are abundant (Downey et al., Rapeseed and Mustard, Chapter 35:495-509, In Hybridization of Crop Plants, supra). B. napus is commonly referred to as canola, rape and oilseed rape.
The 30b mutant line was hybridized to a herbicide-sensitive genotype to generate a seed population heterozygous for sulfonylurea resistance. These heterozygous seeds were sown, repotted into individual pots in a greenhouse, and individuals were randomly divided into 3 populations:
(ii) plants sprayed once with chlorsulfuron (a sulfonylurea herbicide) at a rate of 3 mg/liter until runoff, just as the plants were beginning to bolt (development of flowering stems) (19 plants).
(iii) plants sprayed with chlorsulfuron at a rate of 3 mg./liter until runoff, just as the plants were beginning to bolt, and then every 2 weeks until initiation of plant senescence (18 plants).
as §1, §2

[9] = sprayed 2 weeks after pods full size
[10] = sprayed at pods reaching full size
[11] = sprayed at seedlings (2-3 leaves)
[12] = total of 18 plants repeatedly sprayed
[13] = total of 19 plants sprayed once

## COc1nc(C)nc(NC(=O)NS(=O)(=O)c2ccccc2Cl)n1 [chlorsulfuron]
[1]; [9]
  Number of herbicide-resistant seedlings: 104
  Number of herbicide-sensitive seedlings: 37
  Number of seeds per pod: 4.3
[1]; [10]
  Number of herbicide-resistant seedlings: 127
  Number of herbicide-sensitive seedlings: 28
  Number of seeds per pod: 4.0
[1]; sprayed just prior to bolting
  Number of herbicide-resistant seedlings: 134
  Number of herbicide-sensitive seedlings: 5
  Number of seeds per pod: 3.4
[2]; [9]
  Number of herbicide-resistant seedlings: 184
  Number of herbicide-sensitive seedlings: 26
  Number of seeds per pod: 6.2
[2]; [10]
  Number of herbicide-resistant seedlings: 160
  Number of herbicide-sensitive seedlings: 16
  Number of seeds per pod: 5.8
[2]; [11]
  Number of herbicide-resistant seedlings: 440
  Number of herbicide-sensitive seedlings: 11
  Number of seeds per pod: 5.6
[2]; sprayed just prior to bolting
  Number of herbicide-resistant seedlings: 565
  Number of herbicide-sensitive seedlings: 5
  Number of seeds per pod: 5.4
[3]
  Number of herbicide-resistant seedlings: 381
  Number of herbicide-sensitive seedlings: 112
  Number of seeds per pod: 6.3
[4]
  GUS-negative progeny: 12
  GUS-positive progeny: 136
[5]; repeated fortnightly sprays from bolting
  Number of herbicide-resistant seedlings: 96
[5]; sprayed just prior to bolting
  Number of herbicide-resistant seedlings: 398
  Number of herbicide-sensitive seedlings: 31
[6]; Population A
  GUS-negative progeny: 13
  GUS-positive progeny: 78
[6]; Population B
  GUS-negative progeny: 16
  GUS-positive progeny: 96
[7]
  Number herbicide-sensitive seedlings: 0
  Number of herbicide-resistant seedlings: 111
[8]; both spray regimes
  Resistance of progeny of sprayed heterozygous plants (in words): virtually all the progeny obtained were resistant to chlorsulfuron
[8]; [12]
  Number of herbicide-resistant progeny, Total: 728
  Number of herbicide-sensitive progeny, Total: 2
[8]; [13]
  Number of herbicide-resistant progeny, Total: 1588
  Number of herbicide-sensitive progeny, Total: 17
